Results on one molecule are retold here after ChEMBL document CHEMBL2434882, “A novel [1,2,4] triazolo [1,5-a] pyrimidine-based phenyl-linked steroid dimer: synthesis and its cytotoxic activity” (Eur J Med Chem, 2013).

Test [1] has as its system ECa-109 cell line. The test can be described thus: Induction of apoptosis in human EC109 cells assessed as damaged cells at 5 uM after 24 hrs by annexin V-FITC/propidium iodide staining-based flow cytometric analysis (reference value: 0.1%). The test is classed as functional.
Test [2] has as its system ECa-109 cell line. The test can be described thus: Induction of apoptosis in human EC109 cells assessed as damaged cells at 2.5 uM after 24 hrs by annexin V-FITC/propidium iodide staining-based flow cytometric analysis (reference value: 0.1%). The test is classed as functional.
Test [3] concerns ECa-109 cell line. The test can be described thus: Induction of apoptosis in human EC109 cells assessed as damaged cells at 40 uM after 12 hrs by annexin V-FITC/propidium iodide staining-based flow cytometric analysis (reference value: 0.4%). The test is classed as functional.
The test system of test [4] is ECa-109 cell line. The test can be described thus: Induction of apoptosis in human EC109 cells assessed as live cells at 40 uM after 12 hrs by annexin V-FITC/propidium iodide staining-based flow cytometric analysis (reference value: 92.1%). The test is classed as functional.
For test [5], the system named is ECa-109 cell line. The test can be described thus: Induction of apoptosis in human EC109 cells assessed as early apoptotic cells at 10 uM after 12 hrs by annexin V-FITC/propidium iodide staining-based flow cytometric analysis (reference value: 6.1%). The test is classed as functional.
For test [6], the system named is ECa-109 cell line. The test can be described thus: Induction of apoptosis in human EC109 cells assessed as late apoptotic cells at 2.5 uM after 12 hrs by annexin V-FITC/propidium iodide staining-based flow cytometric analysis (reference value: 1.4%). The test is classed as functional.
A short description of test [7]: Downregulation of MDM2 protein expression in human EC109 cells at 5 to 10 uM after 24 hrs by Western blot analysis. The test is classed as functional, cell-based. The note with it: ECa-109.
The nature of test [8]: Cell cycle arrest in human EC109 cells assessed as accumulation at G2/M phase after 12 to 24 hrs by propidium iodide staining-based flow cytometric analysis. The test is classed as functional. The conditions noted are these: ECa-109.
A short description of test [9]: Cell cycle arrest in human EC109 cells assessed as accumulation at G2/M phase at 5 uM after 24 hrs by propidium iodide staining-based flow cytometric analysis (reference value: 6.31%). The test is classed as functional. The conditions noted are these: ECa-109.
The test system of test [10] is ECa-109 cell line. The test can be described thus: Induction of apoptosis in human EC109 cells assessed as early apoptotic cells at 40 uM after 24 hrs by annexin V-FITC/propidium iodide staining-based flow cytometric analysis (reference value: 3.8%). The test is classed as functional.
Test [11] concerns ECa-109 cell line. The test can be described thus: Induction of apoptosis in human EC109 cells assessed as early apoptotic cells at 40 uM after 12 hrs by annexin V-FITC/propidium iodide staining-based flow cytometric analysis (reference value: 6.1%). In kind it is functional.
Test [12] deals with ECa-109 cell line. The test can be described thus: Induction of apoptosis in human EC109 cells assessed as damaged cells at 40 uM after 24 hrs by annexin V-FITC/propidium iodide staining-based flow cytometric analysis (reference value: 0.1%). The test is classed as functional.

Structures are written as SMILES. The source made the active and inactive calls. No cut-off for these calls is given here.

As to `C[C@]12CC[C@H](O)CC1=CC[C@@H]1[C@@H]2CC[C@]2(C)c3nc4ncnn4c(-c4cccc(-c5c6c(nc7ncnn57)[C@@]5(C)CC[C@H]7[C@@H](CC=C8C[C@@H](O)CC[C@@]87C)[C@@H]5C6)c4)c3C[C@@H]12`, the Activity worked out at 0.4% in the test on ECa-109 cell line [1]; 0.2% in the test on ECa-109 cell line [2]; 7.9% in the test on ECa-109 cell line [3]; 14.6% with ECa-109 cell line [4]; 19.9% with ECa-109 cell line [5]; 13.1% in the test on ECa-109 cell line [6]. For the same molecule, the Activity result in test [8] was “Dose-dependent effect”; in [9], 19.4%; in the test with ECa-109 cell line [10] it was 12%; with ECa-109 cell line [11], 12.2%; in the test on ECa-109 cell line [12], 1.3%. Further, the result in test [7] was Active.
